Eight compounds from ChEMBL document CHEMBL4417622, “New steroid inhibitors of pgp for use for inhibiting multidrug resistance” (2012) can be followed below.

Calls of active or inactive are those of the source. The rule behind the calls is not given here.

One data set deals with T1, Progesterone receptor (Homo sapiens, UniProt P06401).
T1 sequence (P06401 whole entry): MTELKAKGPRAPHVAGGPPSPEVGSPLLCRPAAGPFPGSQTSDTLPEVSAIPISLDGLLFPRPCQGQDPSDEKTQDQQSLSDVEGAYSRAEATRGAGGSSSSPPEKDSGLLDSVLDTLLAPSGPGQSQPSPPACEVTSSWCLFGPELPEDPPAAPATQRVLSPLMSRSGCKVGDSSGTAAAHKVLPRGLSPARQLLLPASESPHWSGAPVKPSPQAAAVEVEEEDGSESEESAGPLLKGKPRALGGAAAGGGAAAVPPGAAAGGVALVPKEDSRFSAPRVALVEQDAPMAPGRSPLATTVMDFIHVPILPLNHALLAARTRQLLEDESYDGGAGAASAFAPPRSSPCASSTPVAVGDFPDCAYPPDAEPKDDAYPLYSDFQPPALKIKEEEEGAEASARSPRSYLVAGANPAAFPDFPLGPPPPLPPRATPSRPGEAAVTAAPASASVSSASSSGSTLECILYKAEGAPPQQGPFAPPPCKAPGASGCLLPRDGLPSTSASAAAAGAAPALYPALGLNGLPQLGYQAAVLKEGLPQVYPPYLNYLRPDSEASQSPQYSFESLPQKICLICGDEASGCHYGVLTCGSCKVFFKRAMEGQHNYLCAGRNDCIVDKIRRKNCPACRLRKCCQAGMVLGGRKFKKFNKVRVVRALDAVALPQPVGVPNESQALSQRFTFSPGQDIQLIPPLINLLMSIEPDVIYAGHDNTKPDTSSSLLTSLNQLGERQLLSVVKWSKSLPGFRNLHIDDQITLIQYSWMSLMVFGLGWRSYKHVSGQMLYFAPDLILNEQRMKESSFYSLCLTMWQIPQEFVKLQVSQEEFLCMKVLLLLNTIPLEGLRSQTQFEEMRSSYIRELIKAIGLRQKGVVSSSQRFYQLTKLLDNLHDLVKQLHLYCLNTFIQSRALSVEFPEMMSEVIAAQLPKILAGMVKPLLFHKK
Nature of the data set: Displacement of [3H]ORG2058 from progesterone receptor in human breast carcinoma cytosol at 0.5 to 3.5 uM by liquid scintillation counting based DCC competitive binding assay.

Data set [1] addresses T2, Nuclear receptor subfamily 1 group I member 2 (Homo sapiens, UniProt O75469).
T2 sequence (O75469 whole entry): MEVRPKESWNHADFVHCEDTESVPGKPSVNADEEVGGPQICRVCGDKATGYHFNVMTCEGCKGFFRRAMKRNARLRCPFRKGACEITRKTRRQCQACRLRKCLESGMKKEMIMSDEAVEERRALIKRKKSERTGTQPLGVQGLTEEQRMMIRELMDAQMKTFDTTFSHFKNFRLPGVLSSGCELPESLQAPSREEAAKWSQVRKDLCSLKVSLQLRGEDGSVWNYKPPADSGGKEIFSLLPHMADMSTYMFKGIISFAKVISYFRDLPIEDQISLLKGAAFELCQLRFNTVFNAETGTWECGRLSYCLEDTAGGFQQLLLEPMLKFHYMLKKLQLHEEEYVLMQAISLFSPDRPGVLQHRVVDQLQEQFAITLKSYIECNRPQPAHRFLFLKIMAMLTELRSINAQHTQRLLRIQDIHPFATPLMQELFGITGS
Nature of the data set: Activation of human PXR at 10 nM to 10 uM. The settings on record: 0.01 µM. In kind it is ADME.

Another data set has as its target P-gp (ABCB1) (Homo sapiens, UniProt P08183). The data set is described as follows: Inhibition of P-gp in human K562/R7 cells assessed as daunorubicin accumulation at 10 uM incubated fro 1 hr by flow cytometry relative to cyclosporine A. In kind it is cell-based. Particulars: probe daunorubicin, read-out: Activity. (In flow cytometry, cells or beads pass a laser one at a time.)

The subject of data set [2] is K562/R7. Nature of the data set: Potentiation of doxorubicin-induced antitumor activity against human K562/R7 cells xenografted in SCID mouse assessed as reduction in tumor volume at 10 mg/kg co-treated with 1.5 mg/kg doxorubicin measured up to 80 days. In kind it is functional, organism-based. A general note: In xenograft studies the graft and the host belong to different species.

Data set [3] relates to NCI-H295R. The data set is described as follows: Potentiation of doxorubicin-induced antitumor activity against human NCI-H295R cells xenografted in SCID mouse assessed as reduction in tumor volume at 10 mg/kg co-treated with 1.5 mg/kg doxorubicin measured up to 80 days. In kind it is functional, organism-based.
Data set [4] relates to K562/R7. Nature of the data set: Potentiation of doxorubicin-induced antitumor activity against human K562/R7 cells xenografted in SCID mouse assessed as reduction in tumor volume at 10 mg/kg co-treated with 1.5 mg/kg doxorubicin after 40 days post dose. In kind it is functional, organism-based.
Data set [5] has as its system NCI-H295R. Nature of the data set: Potentiation of doxorubicin-induced antitumor activity against human NCI-H295R cells xenografted in SCID mouse assessed as reduction in tumor volume at 10 mg/kg co-treated with 1.5 mg/kg doxorubicin after 40 days post dose. In kind it is functional, organism-based.

Chain of P-gp (ABCB1) (P08183 whole entry): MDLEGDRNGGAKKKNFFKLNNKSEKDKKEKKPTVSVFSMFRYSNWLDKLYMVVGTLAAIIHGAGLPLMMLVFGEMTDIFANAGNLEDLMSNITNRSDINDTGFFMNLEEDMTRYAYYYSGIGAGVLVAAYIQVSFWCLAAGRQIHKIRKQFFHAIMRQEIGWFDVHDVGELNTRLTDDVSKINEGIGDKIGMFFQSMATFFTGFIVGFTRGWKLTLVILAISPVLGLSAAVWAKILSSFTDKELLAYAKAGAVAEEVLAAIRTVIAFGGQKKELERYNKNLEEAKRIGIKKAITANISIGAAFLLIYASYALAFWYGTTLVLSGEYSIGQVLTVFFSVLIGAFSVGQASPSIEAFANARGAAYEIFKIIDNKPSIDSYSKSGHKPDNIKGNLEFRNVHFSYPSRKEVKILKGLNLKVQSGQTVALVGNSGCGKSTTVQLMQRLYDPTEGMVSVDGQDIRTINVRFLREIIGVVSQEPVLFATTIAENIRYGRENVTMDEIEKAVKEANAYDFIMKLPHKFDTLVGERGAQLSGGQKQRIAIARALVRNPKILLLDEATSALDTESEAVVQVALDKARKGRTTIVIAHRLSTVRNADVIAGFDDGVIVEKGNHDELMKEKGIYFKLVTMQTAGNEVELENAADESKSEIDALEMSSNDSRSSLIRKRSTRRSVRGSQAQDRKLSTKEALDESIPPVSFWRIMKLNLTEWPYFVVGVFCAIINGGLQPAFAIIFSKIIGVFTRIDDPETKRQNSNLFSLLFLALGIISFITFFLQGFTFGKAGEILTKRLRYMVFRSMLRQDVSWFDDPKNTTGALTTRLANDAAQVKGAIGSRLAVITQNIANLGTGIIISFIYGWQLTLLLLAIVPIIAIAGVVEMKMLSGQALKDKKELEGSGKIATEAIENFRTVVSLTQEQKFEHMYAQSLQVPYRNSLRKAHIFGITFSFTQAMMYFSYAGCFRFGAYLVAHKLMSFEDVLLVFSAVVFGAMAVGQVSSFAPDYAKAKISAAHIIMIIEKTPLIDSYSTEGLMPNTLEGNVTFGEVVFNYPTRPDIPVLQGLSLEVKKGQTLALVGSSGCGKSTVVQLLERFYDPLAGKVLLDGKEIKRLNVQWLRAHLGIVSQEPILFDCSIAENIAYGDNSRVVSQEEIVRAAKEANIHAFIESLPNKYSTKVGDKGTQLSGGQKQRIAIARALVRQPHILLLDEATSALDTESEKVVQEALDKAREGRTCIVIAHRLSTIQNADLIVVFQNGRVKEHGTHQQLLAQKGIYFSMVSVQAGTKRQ

Regarding `CC(=O)[C@H]1CC[C@H]2[C@H]3[C@H]([C@H](OC(=O)c4ccccc4)C[C@]12C)[C@@]1(C)CCC(=O)C[C@H]1C[C@@H]3OC(=O)c1ccccc1`, the Activity result on Progesterone receptor is on record as “Not Active”.
For the compound `CC(=O)[C@@]1(O[C@H]2CCCCO2)CC[C@H]2[C@@H]3CC[C@@H]4CC(=O)CC[C@]4(C)[C@H]3[C@H](O[C@H]3CCCCO3)C[C@@]21C`, the Activity result (at Progesterone receptor; in data set [1]) was “Not Active” throughout.
For `CC(=O)[C@@]1(O[C@@H]2CCCCO2)CC[C@H]2[C@@H]3CC[C@@H]4CC(=O)CC[C@]4(C)[C@H]3[C@H](O[C@@H]3CCCCO3)C[C@@]21C`, the Activity entry in data set [1] is listed as “Not Active”.
For the compound `CC(=O)[C@H]1CC[C@H]2[C@H]3[C@H]([C@H](OC(=O)c4ccccc4)C[C@]12C)[C@@]1(C)CCC(=O)C[C@H]1C[C@H]3OC(=O)c1ccccc1`, the Activity result (at Progesterone receptor; in data set [1]) was “Not Active” throughout.
As to `CC(=O)[C@@]1(O[C@@H]2CCCCO2)CC[C@H]2[C@@H]3CC[C@@H]4CC(=O)CC[C@]4(C)[C@H]3[C@H](O[C@H]3CCCCO3)C[C@@]21C`, the Activity entry in data set [1] was “Not Active”.
Regarding `COC(=O)CC[C@@H](C)[C@H]1CC[C@H]2[C@@H]3[C@H](OC(=O)c4ccccc4)CC4CC(=O)CC[C@]4(C)[C@H]3C[C@H](O[C@@H]3CCCCO3)[C@]12C` (single isomer, unassigned), the inhibition at 1 h, 10 µM at P-gp (ABCB1) is 79.8%.
On to `CC(=O)[C@H]1CC[C@H]2[C@H]3[C@H]([C@H](O[C@@H]4CCCCO4)C[C@]12C)[C@@]1(C)CCC(=O)C[C@H]1C[C@@H]3OC(=O)c1ccccc1`, for which the Activity result in data set [1] is reported as “Not Active”.
For the compound `CC(=O)[C@H]1CC[C@H]2[C@H]3[C@H]([C@H](O[C@@H]4CCCCO4)C[C@]12C)[C@@]1(C)CCC(=O)C[C@H]1C[C@H]3OC(=O)c1ccccc1`, the inhibition at 1 h, 10 µM at P-gp (ABCB1) turned out to be 119%. The Activity entry (on Progesterone receptor; in data set [1]) was “Not Active” in each case. The result with K562/R7 [2], in the data set on NCI-H295R [3], with K562/R7 [4] and with NCI-H295R [5] was Active.
